Values after ≈ are worked out from the molar mass of the structure shown.
What was measured:
MRSA isolates = MRSA isolates in a surveillance study (Arhin et al., 2009); cited from earlier work
[1] = Predicted free peak and free trough levels in plasma; type: in vivo; settings: non-protein bound drug, representative human dose: oritavancin 1200 mg, vancomycin 1000 mg, daptomycin 4 mg/kg, linezolid 500 mg
Protocol: ORI concentrations were chosen to approximate free peak (fCmax; defined as the peak concentration of non-protein bound drug) and free trough (fCmin; defined for ORI as the concentration of non-protein bound drug at 24 h) levels in plasma following administration of a 1200 mg dose (Belley et al., 2013 Table 10). ORI protein binding is estimated at approximately 85% in serum from nonclinical species and humans (Arhin et al., 2010). Doubling dilution concentrations of comparator agents were likewise chosen to approximate their fCmax and fCmin levels in plasma when administered at approved dosages for complicated skin and skin structure infections, using pharmacokinetic data and protein binding values from their respective package inserts (DAP [Cubicin®]; LZD [Zyvox®]; VAN [Vancocin®]; Table 3).

[2] = test system: ABSSSI suspected or proven to be due to a gram-positive pathogen, including MRSA; assay: SOLO I Phase 3 trial, efficacy: single dose IV oritavancin versus IV vancomycin for 7 to 10 days; type: in vivo, human; settings: for Difference in lesion size reduction ≧20% rate (oritavancin minus vancomycin) / Difference in primary efficacy endpoint rate (oritavancin minus vancomycin): ECE; for Lesion Size Reduction ≧20% From Baseline / Primary efficacy endpoint response rate (cessation of spread, absence of fever, no rescue antibiotics): ECE 48 to 72 hours; for Difference in investigator-assessed clinical cure rate (oritavancin minus vancomycin) / Difference in sustained clinical cure rate (oritavancin minus vancomycin): PTE; for Investigator-Assessed Clinical Cure / Sustained Clinical Cure: PTE 7 to 14 days after EOT
Protocol: The primary efficacy endpoint comprised: 1) cessation of spreading or reduction in the size of the baseline lesion, 2) absence of fever, and 3) no rescue antibiotic, at 48 to 72 hours, for the modified intent to treat population.
The study design was consistent with current guidelines from FDA (U.S. Food and Drug Administration. Guidance for Industry Acute Bacterial Skin and Skin Structure Infections: Developing Drugs for Treatment (DRAFT GUIDANCE). Available via Internet at the URL containing: fda.gov/downloads/Drugs/GuidanceComplianceRegulatoryInformation/Guidances/ucm071185.p df) and EMA (European Medicines Agency Committee for Medicinal Products for Human Use. Addendum to the note for guidance on evaluation of medicinal products indicated for treatment of bacterial infections (CHMP/EWP/558/95 REV 2) to address indication-specific clinical data (draft). 2012. Available via Internet at the URL containing: ema.europa.eu/docs/en_GB/document_library/Scientific_guideline/2012/07/WC500129443.pdf) and Foundation for National Institutes of Health guidance was considered for analyses (Talbot G H etl. Clin Infect Dis. 2012. 55(8):1114-1121). The protocol was approved by institutional review boards/ethics committees and all patients provided written informed consent. The study was conducted from January 2011 through October 2012 at 46 study centers in Mexico, Spain, Germany, Romania, Russia, Ukraine, Israel, India, and the United States. […] Aztreonam and metronidazole were permitted for gram-negative and anaerobic cover, respectively.
Clinical evaluations were performed at the following time points: Early Clinical Evaluation (ECE) at 48 to 72 hours after the initiation of the study drug infusion, End of Therapy (EOT) at Day 7 to Day 10 or the day the patient stopped study drug or changed to non-study drug therapy for primary ABSSSI, Day 10 Evaluation defined as 10 days after the initiation of the study drug infusion, Post Therapy Evaluation (PTE) at 7 to 14 days after the EOT visit, and Safety Follow-up at 60 days (+7 days) after the initiation of the study drug infusion. Safety data was reviewed by a data monitoring committee.
Eligible patients were to be at least 18 years of age with diagnosis of ABSSSI that was suspected or proven to be due to a gram-positive pathogen and which required at least 7 days of IV therapy. The diagnosis of ABSSSI was defined as wound infections (either traumatic or surgical in origin), cellulitis/erysipelas or major cutaneous abscess with surrounding erythema, edema, and/or induration of at least 75 cm^2. The onset of wound infections or cellulitis/erysipelas must have occurred within 7 days prior to randomization. Patients also had to present with signs and symptoms of systemic inflammation. Patients were not eligible to participate if they received systemic or topical antibacterial therapy with gram-positive activity within the preceding 14 days.
The primary efficacy endpoint was a composite outcome of 1) cessation of spreading or reduction in the size of the baseline lesion, 2) absence of fever, and 3) no rescue antibiotic medication at the ECE visit, for the mITT population.
The secondary efficacy outcomes were as follows: 1) Lesion area decrease by ≧20% from Baseline at ECE, 2) Investigator-Assessed Clinical Response at PTE, 3) Sustained Clinical Response at PTE.
The analyses were performed for patients who had lesion area assessments at baseline and ECE using the mITT and CE populations.
If a patient had clinical failure assessed beyond the PTE visit window, the patient was considered as a clinical failure. If a patient had clinical success assessed beyond the PTE visit window, a) and if the patient had clinical failure before the PTE visit, the patient was considered a clinical failure at PTE or b) if the patient had clinical success also before the PTE visit, the patient was considered a clinical success at PTE.

SMILES: CN[C@H](CC(C)C)C(=O)N[C@H]1C(=O)N[C@@H](CC(N)=O)C(=O)N[C@H]2C(=O)N[C@H]3C(=O)N[C@H](C(=O)N[C@H](C(=O)O)c4cc(O)cc(O)c4-c4cc3ccc4O)[C@H](O[C@H]3C[C@](C)(N)[C@@H](O)[C@H](C)O3)c3ccc(c(Cl)c3)Oc3cc2cc(c3O[C@@H]2O[C@H](CO)[C@@H](O)[C@H](O)[C@H]2O[C@H]2C[C@](C)(NCc3ccc(-c4ccc(Cl)cc4)cc3)[C@@H](O)[C@H](C)O2)Oc2ccc(cc2Cl)[C@H]1O [Oritavancin, N^DISACC-(4-(4-chlorophenyl)benzyl)A82846B]
- MIC90 (MRSA isolates): 0.12 µg/mL (≈ 0.0669 µM)
- Doubling Dilution Concentration Representing Predicted fCmax [1]: 16 mg/L
- Efficacy versus vancomycin for ECE and PTE endpoints ([2]; 10% non-inferiority margin): non-inferior to vancomycin
- Patients both early treatment responders (lesion size reduction of ≧20% at ECE) and clinical successes at PTE ([2]; CE population): more than 84%
- Difference in lesion size reduction ≧20% rate (oritavancin minus vancomycin) ([2]; CE): 1.9%
- Difference in primary efficacy endpoint rate (oritavancin minus vancomycin) ([2]; CE): 1.2%
- Lesion Size Reduction ≧20% From Baseline ([2]; CE): 90.6%
- Primary efficacy endpoint response rate (cessation of spread, absence of fever, no rescue antibiotics) ([2]; CE): 87.3%
- Difference in investigator-assessed clinical cure rate (oritavancin minus vancomycin) ([2]; CE): −1.3%
- Difference in sustained clinical cure rate (oritavancin minus vancomycin) ([2]; CE): −3.9%
- Investigator-Assessed Clinical Cure ([2]; CE): 91.9%
- Sustained Clinical Cure ([2]; CE): 79.4%
- Difference in lesion size reduction ≧20% rate (oritavancin minus vancomycin) ([2]; MRSA MicroE): 7.5%
- Difference in primary efficacy endpoint rate (oritavancin minus vancomycin) ([2]; MRSA MicroE): 1.8%
- Lesion Size Reduction ≧20% From Baseline ([2]; MRSA MicroE): 96.5%
- Primary efficacy endpoint response rate (cessation of spread, absence of fever, no rescue antibiotics) ([2]; MRSA MicroE): 88.4%
- Difference in investigator-assessed clinical cure rate (oritavancin minus vancomycin) ([2]; MRSA MicroE): −2.2%
- Difference in sustained clinical cure rate (oritavancin minus vancomycin) ([2]; MRSA MicroE): −2.8%
- Investigator-Assessed Clinical Cure ([2]; MRSA MicroE): 95.3%
- Sustained Clinical Cure ([2]; MRSA MicroE): 81.4%
- Difference in lesion size reduction ≧20% rate (oritavancin minus vancomycin) ([2]; MRSA MicroITT): 6.4%
- Difference in primary efficacy endpoint rate (oritavancin minus vancomycin) ([2]; MRSA MicroITT): 0.8%
- Lesion Size Reduction ≧20% From Baseline ([2]; MRSA MicroITT): 90.4%
- Primary efficacy endpoint response rate (cessation of spread, absence of fever, no rescue antibiotics) ([2]; MRSA MicroITT): 80.8%
- Lesion Size Reduction ≧20% From Baseline ([2]; MRSA MicroITT, listed as oritavancin): 90.4%
- Difference in investigator-assessed clinical cure rate (oritavancin minus vancomycin) ([2]; MRSA MicroITT): −0.3%
- Difference in sustained clinical cure rate (oritavancin minus vancomycin) ([2]; MRSA MicroITT): −0.7%
- Investigator-Assessed Clinical Cure ([2]; MRSA MicroITT): 82.7%
- Sustained Clinical Cure ([2]; MRSA MicroITT): 68.3%
- Difference in lesion size reduction ≧20% rate (oritavancin minus vancomycin) ([2]; mITT): 4.1%
- Difference in primary efficacy endpoint rate (oritavancin minus vancomycin) ([2]; mITT): 3.4%
- Lesion Size Reduction ≧20% From Baseline ([2]; mITT): 86.9%
- Primary efficacy endpoint response rate (cessation of spread, absence of fever, no rescue antibiotics) ([2]; mITT): 82.3%
- Lesion Size Reduction ≧20% From Baseline ([2]; mITT, listed as oritavancin): 86.9%
- Primary efficacy endpoint response rate (cessation of spread, absence of fever, no rescue antibiotics) ([2]; mITT, listed as oritavancin): 82.3%
- Difference in investigator-assessed clinical cure rate (oritavancin minus vancomycin) ([2]; mITT): −0.4%
- Difference in sustained clinical cure rate (oritavancin minus vancomycin) ([2]; mITT): −2.6%
- Investigator-Assessed Clinical Cure ([2]; mITT): 79.6%
- Sustained Clinical Cure ([2]; mITT): 67.2%
- Investigator-Assessed Clinical Cure ([2]; mITT, listed as oritavancin): 79.6%
- Sustained Clinical Cure ([2]; mITT, listed as oritavancin): 67.2%

SMILES: CN[C@H](CC(C)C)C(=O)N[C@H]1C(=O)N[C@@H](CC(N)=O)C(=O)N[C@H]2C(=O)N[C@H]3C(=O)N[C@H](C(=O)N[C@H](C(=O)O)c4cc(O)cc(O)c4-c4cc3ccc4O)[C@H](O)c3ccc(c(Cl)c3)Oc3cc2cc(c3O[C@@H]2O[C@H](CO)[C@@H](O)[C@H](O)[C@H]2O[C@H]2C[C@](C)(N)[C@H](O)[C@H](C)O2)Oc2ccc(cc2Cl)[C@H]1O [Vancomycin, vancomycin]
- Doubling Dilution Concentration Representing Predicted fCmax [1]: 16 mg/L
- Lesion Size Reduction ≧20% From Baseline ([2]; CE): 88.7%
- Primary efficacy endpoint response rate (cessation of spread, absence of fever, no rescue antibiotics) ([2]; CE): 86.1%
- Investigator-Assessed Clinical Cure ([2]; CE): 93.2%
- Lesion Size Reduction ≧20% From Baseline ([2]; MRSA MicroE): 89.0%
- Primary efficacy endpoint response rate (cessation of spread, absence of fever, no rescue antibiotics) ([2]; MRSA MicroE): 86.6%
- Investigator-Assessed Clinical Cure ([2]; MRSA MicroE): 97.6%
- Lesion Size Reduction ≧20% From Baseline ([2]; MRSA MicroITT): 84.0%
- Primary efficacy endpoint response rate (cessation of spread, absence of fever, no rescue antibiotics) ([2]; MRSA MicroITT): 80.0%
- Lesion Size Reduction ≧20% From Baseline ([2]; MRSA MicroITT, listed as vancomycin): 84.0%
- Investigator-Assessed Clinical Cure ([2]; MRSA MicroITT): 83.0%
- Sustained Clinical Cure ([2]; MRSA MicroITT): 69.0%
- Lesion Size Reduction ≧20% From Baseline ([2]; mITT): 82.9%
- Primary efficacy endpoint response rate (cessation of spread, absence of fever, no rescue antibiotics) ([2]; mITT): 78.9%
- Lesion Size Reduction ≧20% From Baseline ([2]; mITT, listed as vancomycin): 82.9%
- Primary efficacy endpoint response rate (cessation of spread, absence of fever, no rescue antibiotics) ([2]; mITT, listed as vancomycin): 78.9%
- Investigator-Assessed Clinical Cure ([2]; mITT): 80.0%
- Sustained Clinical Cure ([2]; mITT): 69.7%
- Investigator-Assessed Clinical Cure ([2]; mITT, listed as vancomycin): 80.0%
- Sustained Clinical Cure ([2]; mITT, listed as vancomycin): 69.7%
